Measurements from ChEMBL document CHEMBL3352578 (J Med Chem, 2014).
Calls of active or inactive are those of the source. The rule behind the calls is not given here.

Assays:
[1] = Cmax in Sprague-Dawley rat at 10 mg/kg, po; assay type: ADME, organism-based; design: dose 10 mg/kg, route oral; settings: in vivo
[2] = Oral bioavailability in Sprague-Dawley rat at 10 mg/kg; assay type: ADME, organism-based; settings: in vivo
[3] = Ratio of drug level in brain to plasma in Swiss mouse at 10 mg/kg, sc after 1 hr; assay type: ADME, organism-based; design: dose 10 mg/kg, route subcutaneous; settings: brain and plasma, read-out: BPR
Rattus norvegicus [4] = experiment: Positive allosteric modulation of mGlu2 receptor in po dosed Sprague-Dawley rat assessed effect on sleep-wake EEG paradigm after 20 hrs by electroencephalogram analysis; assay type: functional; settings: for minimal effective dose: Rattus norvegicus, Sprague-Dawley, po, 20 h, read-out: MED
Rattus norvegicus [5] = experiment: Positive allosteric modulation of mGlu2 receptor in Sprague-Dawley rat sleep-wake EEG paradigm model assessed as reduction in REM sleep at 3 mg/kg, po after 4 hrs by electroencephalogram analysis; assay type: functional, organism-based; design: dose 3 mg/kg
Rattus norvegicus [6] = experiment: Positive allosteric modulation of mGlu2 receptor in Sprague-Dawley rat sleep-wake EEG paradigm model assessed as effect on active wake stage at 3 mg/kg, po after 4 hrs by electroencephalogram analysis; assay type: functional, organism-based; design: dose 3 mg/kg
Rattus norvegicus [7] = experiment: Positive allosteric modulation of mGlu2 receptor in Sprague-Dawley rat sleep-wake EEG paradigm model assessed as effect on passive wake stage at 3 mg/kg, po after 4 hrs by electroencephalogram analysis; assay type: functional, organism-based; design: dose 3 mg/kg
Rattus norvegicus [8] = experiment: Positive allosteric modulation of mGlu2 receptor in Sprague-Dawley rat sleep-wake EEG paradigm model assessed as effect on intermediate state at 3 mg/kg, po after 4 hrs by electroencephalogram analysis; assay type: functional, organism-based; design: dose 3 mg/kg
Rattus norvegicus [9] = experiment: Positive allosteric modulation of mGlu2 receptor in Sprague-Dawley rat sleep-wake EEG paradigm model assessed as effect on light sleep stage at 3 mg/kg, po after 4 hrs by electroencephalogram analysis; assay type: functional, organism-based; design: dose 3 mg/kg
Rattus norvegicus [10] = experiment: Positive allosteric modulation of mGlu2 receptor in Sprague-Dawley rat sleep-wake EEG paradigm model assessed as effect on deep sleep stage at 3 mg/kg, po after 4 hrs by electroencephalogram analysis; assay type: functional, organism-based; design: dose 3 mg/kg
[11] = biological target: T1, Metabotropic glutamate receptor 2 (Homo sapiens, UniProt Q14416); experiment: Positive allosteric modulation of human mGlu2 receptor expressed in CHO cells assessed as potentiation of glutamate-induced effect incubated for 30 mins prior to [35S]GTPgamma addition measured after 30 mins; assay type: functional, cell-based
Target sequence in this assay (Q14416 whole entry): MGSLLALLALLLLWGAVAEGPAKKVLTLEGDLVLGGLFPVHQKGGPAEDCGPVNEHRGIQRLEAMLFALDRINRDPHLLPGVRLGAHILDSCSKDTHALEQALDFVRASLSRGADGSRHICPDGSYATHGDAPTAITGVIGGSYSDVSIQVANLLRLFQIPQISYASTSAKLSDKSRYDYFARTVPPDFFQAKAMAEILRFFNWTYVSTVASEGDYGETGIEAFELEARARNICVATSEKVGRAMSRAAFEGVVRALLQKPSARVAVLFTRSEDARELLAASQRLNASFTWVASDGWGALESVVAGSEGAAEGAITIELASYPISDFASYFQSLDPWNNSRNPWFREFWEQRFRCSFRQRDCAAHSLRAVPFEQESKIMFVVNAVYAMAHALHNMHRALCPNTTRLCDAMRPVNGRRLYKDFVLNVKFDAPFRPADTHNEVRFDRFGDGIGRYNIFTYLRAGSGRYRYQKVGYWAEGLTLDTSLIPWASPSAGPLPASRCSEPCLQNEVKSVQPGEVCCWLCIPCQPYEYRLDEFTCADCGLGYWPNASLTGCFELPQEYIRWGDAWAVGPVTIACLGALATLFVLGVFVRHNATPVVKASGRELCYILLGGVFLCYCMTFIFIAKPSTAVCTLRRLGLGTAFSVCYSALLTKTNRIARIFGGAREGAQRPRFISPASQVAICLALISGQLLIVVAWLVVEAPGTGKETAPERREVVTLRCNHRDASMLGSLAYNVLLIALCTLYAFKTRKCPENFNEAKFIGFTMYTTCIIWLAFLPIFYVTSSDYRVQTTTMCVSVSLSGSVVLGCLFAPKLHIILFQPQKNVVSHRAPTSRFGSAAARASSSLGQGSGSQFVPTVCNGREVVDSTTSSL

[12] = biological target: T1, Metabotropic glutamate receptor 2; experiment: Positive allosteric modulation of human mGlu2 receptor expressed in CHO cells assessed as potentiation of glutamate-induced effect incubated for 30 mins prior to [35S]GTPgamma addition measured after 30 mins relative to glutamate; assay type: functional, cell-based
Target sequence in this assay (Q14416 19-872 limits assumed): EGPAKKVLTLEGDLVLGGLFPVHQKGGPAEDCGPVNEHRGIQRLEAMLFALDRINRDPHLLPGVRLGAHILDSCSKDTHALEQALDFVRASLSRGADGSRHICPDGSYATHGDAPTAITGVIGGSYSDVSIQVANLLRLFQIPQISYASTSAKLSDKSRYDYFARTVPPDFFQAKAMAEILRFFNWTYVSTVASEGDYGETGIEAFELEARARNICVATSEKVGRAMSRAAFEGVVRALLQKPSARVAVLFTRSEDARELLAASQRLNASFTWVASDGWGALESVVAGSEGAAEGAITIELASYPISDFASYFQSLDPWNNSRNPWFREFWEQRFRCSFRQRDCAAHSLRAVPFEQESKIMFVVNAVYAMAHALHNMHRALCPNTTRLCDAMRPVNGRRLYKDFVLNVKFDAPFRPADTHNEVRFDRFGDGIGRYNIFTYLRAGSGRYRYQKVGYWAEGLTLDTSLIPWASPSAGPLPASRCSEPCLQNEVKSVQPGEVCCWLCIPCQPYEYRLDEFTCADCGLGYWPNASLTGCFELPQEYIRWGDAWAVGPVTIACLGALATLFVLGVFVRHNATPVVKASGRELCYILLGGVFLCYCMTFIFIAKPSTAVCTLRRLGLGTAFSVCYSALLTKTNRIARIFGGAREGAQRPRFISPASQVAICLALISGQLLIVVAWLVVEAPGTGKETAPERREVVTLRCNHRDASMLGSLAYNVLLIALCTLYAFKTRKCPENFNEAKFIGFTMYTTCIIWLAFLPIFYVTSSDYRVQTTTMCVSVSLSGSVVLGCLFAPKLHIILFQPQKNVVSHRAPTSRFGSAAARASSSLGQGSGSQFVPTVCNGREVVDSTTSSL

[13] = Metabolic stability in human liver microsomes assessed as compound metabolized at 5 uM after 15 mins by MS/MS analysis in presence of NADPH; assay type: ADME; settings: read-out: Drug metabolism
[14] = Metabolic stability in rat liver microsomes assessed as compound metabolized at 5 uM after 15 mins by MS/MS analysis in presence of NADPH; assay type: ADME; settings: read-out: Drug metabolism
hERG (KCNH2) = hERG (KCNH2) (Homo sapiens, UniProt Q12809); experiment: Inhibition of human ERG channel transfected in HEK293 cells at 3 uM by patch clamp technique; assay type: cell-based; settings: HEK293 cells transfected with human ERG channel
Chain of hERG (KCNH2) (Q12809 whole entry): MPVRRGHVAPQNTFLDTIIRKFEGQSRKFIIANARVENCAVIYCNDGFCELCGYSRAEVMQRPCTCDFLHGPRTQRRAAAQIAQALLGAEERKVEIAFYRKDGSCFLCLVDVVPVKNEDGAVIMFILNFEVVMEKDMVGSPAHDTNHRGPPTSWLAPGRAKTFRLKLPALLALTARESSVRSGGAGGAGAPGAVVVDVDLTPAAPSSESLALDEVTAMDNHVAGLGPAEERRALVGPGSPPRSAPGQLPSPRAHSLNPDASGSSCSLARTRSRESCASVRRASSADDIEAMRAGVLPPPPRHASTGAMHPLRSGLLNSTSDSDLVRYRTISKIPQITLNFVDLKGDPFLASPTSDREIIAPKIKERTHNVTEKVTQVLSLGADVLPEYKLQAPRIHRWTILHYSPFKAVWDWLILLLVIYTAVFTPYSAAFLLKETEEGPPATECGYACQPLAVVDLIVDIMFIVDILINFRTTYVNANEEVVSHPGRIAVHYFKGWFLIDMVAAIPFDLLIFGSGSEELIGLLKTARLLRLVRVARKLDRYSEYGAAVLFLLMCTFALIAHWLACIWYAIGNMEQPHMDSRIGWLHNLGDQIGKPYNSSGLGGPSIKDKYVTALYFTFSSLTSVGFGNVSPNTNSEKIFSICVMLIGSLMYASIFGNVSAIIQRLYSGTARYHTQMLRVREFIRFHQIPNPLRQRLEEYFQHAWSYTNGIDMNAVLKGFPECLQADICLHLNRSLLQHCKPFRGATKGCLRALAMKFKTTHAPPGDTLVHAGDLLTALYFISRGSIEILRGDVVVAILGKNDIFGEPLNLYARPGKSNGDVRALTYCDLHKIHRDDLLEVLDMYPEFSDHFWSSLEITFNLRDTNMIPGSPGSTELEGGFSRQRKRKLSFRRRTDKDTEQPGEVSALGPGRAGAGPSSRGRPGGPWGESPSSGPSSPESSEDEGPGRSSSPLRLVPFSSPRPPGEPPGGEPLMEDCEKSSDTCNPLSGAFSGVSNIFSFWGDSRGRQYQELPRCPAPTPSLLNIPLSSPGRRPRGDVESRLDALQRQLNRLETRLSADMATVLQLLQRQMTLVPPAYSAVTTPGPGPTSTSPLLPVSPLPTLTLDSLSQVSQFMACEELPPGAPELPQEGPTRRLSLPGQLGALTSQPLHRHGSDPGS

[15] = Clearance in Sprague-Dawley rat at 2.5 mg/kg, iv; assay type: ADME, organism-based; design: dose 2.5 mg/kg, route intravenous; settings: in vivo
[16] = Elimination half life in Sprague-Dawley rat at 2.5 mg/kg, iv; assay type: ADME, organism-based; design: dose 2.5 mg/kg, route intravenous; settings: in vivo, read-out: beta t1/2 (converted)
[17] = Tmax in Sprague-Dawley rat at 2.5 mg/kg, iv; assay type: ADME, organism-based; design: dose 2.5 mg/kg, route intravenous; settings: in vivo
[18] = AUC (0 to infinity) in Sprague-Dawley rat at 10 mg/kg, po; assay type: ADME, organism-based; design: time infinity, dose 10 mg/kg, route oral; settings: plasma
[19] = Dissociation constant, pKa of the compound; assay type: physicochemical
[20] = Lipophilicity, log P of the compound at pH 6.8; assay type: physicochemical; settings: buffer
[21] = biological target: Metabotropic glutamate receptor 1 (Homo sapiens) (UniProt Q13255); experiment: Binding affinity to human mGlu1 receptor expressed in HEK293 cells assessed as calcium mobilization by [35S]GTPgamma binding assay; assay type: functional, cell-based
[22] = biological target: Metabotropic glutamate receptor 3 (Homo sapiens) (UniProt Q14832); experiment: Binding affinity to human mGlu3 receptor expressed in HEK293 cells assessed as calcium mobilization by [35S]GTPgamma binding assay; assay type: functional, cell-based
[23] = biological target: Metabotropic glutamate receptor 5 (Homo sapiens) (UniProt P41594); experiment: Binding affinity to human mGlu5 receptor expressed in HEK293 cells assessed as calcium mobilization by [35S]GTPgamma binding assay; assay type: functional, cell-based
[24] = biological target: Metabotropic glutamate receptor 4 (Homo sapiens) (UniProt Q14833); experiment: Binding affinity to human mGlu4 receptor expressed in […] L929 cells assessed as calcium mobilization by [35S]GTPgamma binding assay; assay type: functional, cell-based
Chain of Metabotropic glutamate receptor 4 (Homo sapiens) (Q14833 whole entry): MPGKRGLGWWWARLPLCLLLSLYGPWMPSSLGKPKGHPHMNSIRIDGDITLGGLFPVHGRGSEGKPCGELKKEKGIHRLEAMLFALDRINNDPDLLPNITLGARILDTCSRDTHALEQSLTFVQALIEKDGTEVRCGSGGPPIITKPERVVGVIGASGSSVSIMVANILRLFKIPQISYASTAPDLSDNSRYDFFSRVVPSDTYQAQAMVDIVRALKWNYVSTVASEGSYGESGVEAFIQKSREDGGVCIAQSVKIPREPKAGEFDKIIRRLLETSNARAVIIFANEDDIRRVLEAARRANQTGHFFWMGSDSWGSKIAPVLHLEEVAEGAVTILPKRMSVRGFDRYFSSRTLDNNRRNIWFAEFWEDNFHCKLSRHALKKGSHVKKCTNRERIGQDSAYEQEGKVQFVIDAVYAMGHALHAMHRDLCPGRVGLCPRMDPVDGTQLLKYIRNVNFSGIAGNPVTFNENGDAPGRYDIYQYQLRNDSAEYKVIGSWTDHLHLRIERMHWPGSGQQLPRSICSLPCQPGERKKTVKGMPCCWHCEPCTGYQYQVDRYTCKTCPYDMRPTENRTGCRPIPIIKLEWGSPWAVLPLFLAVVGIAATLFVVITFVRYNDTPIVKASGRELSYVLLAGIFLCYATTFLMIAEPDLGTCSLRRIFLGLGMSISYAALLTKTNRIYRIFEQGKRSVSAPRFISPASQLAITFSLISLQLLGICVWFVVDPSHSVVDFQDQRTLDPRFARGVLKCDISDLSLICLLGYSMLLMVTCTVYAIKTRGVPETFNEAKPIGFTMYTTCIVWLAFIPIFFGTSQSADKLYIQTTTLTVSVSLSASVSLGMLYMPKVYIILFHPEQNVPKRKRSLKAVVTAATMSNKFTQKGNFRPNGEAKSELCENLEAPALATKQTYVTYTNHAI

[25] = biological target: Metabotropic glutamate receptor 6 (Rattus norvegicus) (UniProt P35349); experiment: Binding affinity to rat mGlu6 receptor expressed in CHO cells assessed as calcium mobilization by [35S]GTPgamma binding assay; assay type: functional, cell-based
Chain of Metabotropic glutamate receptor 6 (Rattus norvegicus) (P35349 whole entry): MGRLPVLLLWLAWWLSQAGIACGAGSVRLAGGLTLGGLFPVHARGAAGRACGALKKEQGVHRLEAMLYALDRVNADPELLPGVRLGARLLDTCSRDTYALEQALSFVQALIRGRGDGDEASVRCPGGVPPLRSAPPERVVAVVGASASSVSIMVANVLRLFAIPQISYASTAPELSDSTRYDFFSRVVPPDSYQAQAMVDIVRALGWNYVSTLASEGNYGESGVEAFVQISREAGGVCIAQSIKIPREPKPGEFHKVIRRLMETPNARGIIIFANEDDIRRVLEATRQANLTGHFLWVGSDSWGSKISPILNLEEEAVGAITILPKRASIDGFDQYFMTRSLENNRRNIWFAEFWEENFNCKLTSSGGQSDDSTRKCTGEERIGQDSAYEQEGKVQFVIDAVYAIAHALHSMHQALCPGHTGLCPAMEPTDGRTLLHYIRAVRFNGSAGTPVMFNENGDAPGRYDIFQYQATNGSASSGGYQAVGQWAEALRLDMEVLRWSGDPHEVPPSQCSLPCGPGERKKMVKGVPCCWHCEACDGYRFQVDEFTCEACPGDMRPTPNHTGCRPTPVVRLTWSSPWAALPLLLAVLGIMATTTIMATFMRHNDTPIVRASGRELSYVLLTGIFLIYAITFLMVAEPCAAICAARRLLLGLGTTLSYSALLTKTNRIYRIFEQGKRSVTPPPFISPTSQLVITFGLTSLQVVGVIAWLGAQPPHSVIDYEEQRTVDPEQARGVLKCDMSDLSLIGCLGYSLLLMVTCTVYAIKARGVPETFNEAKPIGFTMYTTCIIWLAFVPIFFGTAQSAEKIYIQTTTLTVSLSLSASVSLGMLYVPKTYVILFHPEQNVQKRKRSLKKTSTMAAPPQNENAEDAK

[26] = Apparent permeability from apical to basolateral side in human Caco2 cells; assay type: ADME, cell-based; settings: Caco-2
[27] = Apparent permeability from basolateral to apical side in human Caco2 cells; assay type: ADME, cell-based; settings: Caco-2
[28] = Volume of distribution at steady state in Sprague-Dawley rat at 2.5 mg/kg, iv; assay type: ADME, organism-based; design: dose 2.5 mg/kg, route intravenous; settings: in vivo, read-out: Vdss
[29] = Clearance in dog at 1 mg/kg, iv; assay type: ADME, organism-based, Canis lupus familiaris; design: dose 1 mg/kg, route intravenous; settings: in vivo
[30] = Volume of distribution at steady state in dog at 1 mg/kg, iv; assay type: ADME, organism-based, Canis lupus familiaris; design: dose 1 mg/kg, route intravenous; settings: in vivo, read-out: Vdss
[31] = Tmax in dog at 1 mg/kg, iv; assay type: ADME, organism-based, Canis lupus familiaris; design: dose 1 mg/kg, route intravenous; settings: in vivo
[32] = Elimination half life in dog at 1 mg/kg, iv; assay type: ADME, organism-based, Canis lupus familiaris; design: dose 1 mg/kg, route intravenous; settings: in vivo, read-out: beta t1/2 (converted)
[33] = AUC (0 to infinity) in dog at 2.5 mg/kg, po; assay type: ADME, organism-based, Canis lupus familiaris; design: time infinity, dose 2.5 mg/kg, route oral; settings: plasma
[34] = Cmax in dog at 2.5 mg/kg, po; assay type: ADME, organism-based, Canis lupus familiaris; design: dose 2.5 mg/kg, route oral; settings: in vivo
[35] = Oral bioavailability in dog at 2.5 mg/kg; assay type: ADME, organism-based, Canis lupus familiaris; settings: in vivo
Rattus norvegicus [36] = experiment: Positive allosteric modulation of mGlu2 receptor in po dosed Sprague-Dawley rat assessed free plasma drug level causing effect on sleep-wake EEG paradigm after 20 hrs by electroencephalogram analysis; assay type: functional

| Structure (SMILES) | Cmax [1] | bioavailability [2] | Kp at 1 h [3] | MEC (Rattus norvegicus [4]) | minimal effective dose (Rattus norvegicus [4]) | Activity (Rattus norvegicus [5]) | Activity (Rattus norvegicus [6]) | Activity (Rattus norvegicus [7]) | Activity (Rattus norvegicus [8]) | Activity (Rattus norvegicus [9]) | Activity (Rattus norvegicus [10]) | EC50 [11] | Emax [12] | metabolised at 0.25 h, 5 µM [13] | metabolised at 0.25 h, 5 µM [14] | inhibition at 3 µM (hERG (KCNH2)) | clearance [15] | half-life [16] | Tmax [17] | AUC(0-inf) [18] | other results |
| --- | --- | --- | --- | --- | --- | --- | --- | --- | --- | --- | --- | --- | --- | --- | --- | --- | --- | --- | --- | --- | --- |
| N#Cc1c(N2CCC(c3ccccc3)CC2)ccn(CC2CC2)c1=O | 1410 ng/mL | 51% | 0.3 | 420 ng/mL | 3 mg/kg | Active | inactive | inactive | inactive | inactive | inactive | 151 nM | 309% | 25% | 44% | 58% | 18 mL/min/kg | 2.1 h | 0.5 h | 4350 ng·h/mL | – |
| CCCCn1ccc(N2CCC(c3ccccc3)CC2)c(Cl)c1=O [JNJ-40411813] | 938 ng/mL | 31% | 1 | 281 ng/mL | 3 mg/kg | Active | inactive | inactive | inactive | inactive | inactive | – | – | 23% | 53% | – | 23 mL/min/kg | 2.3 h | 0.5 h | 2250 ng·h/mL | pKa [19]: < 2; logD [20]: 4.6; Activity [21]: inactive; Activity [22]: inactive; Activity [23]: inactive; Activity [24]: inactive; Activity [25]: inactive; Papp A→B [26]: 12 ×10⁻⁶ cm/s; Papp B→A [27]: 6 ×10⁻⁶ cm/s; Vd [28]: 2.3 L/kg; clearance [29]: 23 mL/min/kg; Vd [30]: 1.8 L/kg; Tmax [31]: 0.5 h; half-life [32]: 3.7 h; AUC(0-inf) [33]: 743 ng·h/mL; Cmax [34]: 373 ng/mL; bioavailability [35]: 20%; fMEC (Rattus norvegicus [36]): 0.9 ng/mL |
| O=c1c(Cl)c(N2CCC(c3ccccc3)CC2)ccn1CC1CC1 | 986 ng/mL | 34% | 0.9 | >986 ng/mL | > 10 mg/kg | inactive | inactive | inactive | inactive | inactive | inactive | 170 nM | 259% | 17% | 30% | 51% | 24 mL/min/kg | 3.5 h | 0.5 h | 2310 ng·h/mL | – |
